Consider 7 molecules from publication PMC4669722, “Antitumour potential of BPT: a dual inhibitor of cdk4 and tubulin polymerization” (Cell Death & Disease, 2015).

Structures are written as SMILES. Starred links: 1 amine or outer side, 2 acyl side, 3 side chain; linkers in the order of their positions; H or OH if unused. Positions of bridges follow the written chain, without caps; N, C: chain ends. Non-standard residues stand in square brackets, D forms with d. Residues, ends and D or L forms follow the SMILES beside them. Chains are numbered I, II in the order given. Actinocin(9to1) = Cc1c2oc3c(C)ccc(C(=O)[*:1])c3nc-2c(C(=O)[*:2])c(N)c1=O; NMeV = CN[C@H](C(=O)O)C(C)C; Sar = CNCC(=O)O

Usually IC50 stands for the point on the concentration scale where inhibition reaches its midpoint.

The subject of assay [1] is NCI-H460 (NSCLC; p53+, pRb+). Briefly: Cell proliferation (MTT) assay, NCI-H460. The class given is cell-based. The conditions noted are these: Homo sapiens, 48 h, read-out: IC50 cell growth inhibition, NCI-H460. How it is done:
(§1) All 10 human cancer cell lines were maintained at 37 °C in 5% CO2 in RPMI-1640 medium, supplemented with 10% foetal calf serum and 100 μg/ml normocin. The 10 cancer cell lines used for screening were all obtained from ATCC (Manassas, VA, USA); they were the NSCLC (a form of cancer that is resistant to chemotherapy) lines: NCI-H460 (pRb^+, p53^+), A549 (pRb^+, p53^+), Calu-1 (pRb^+, p53-null), NCI-H1299 (pRb^+, p53-null), NCI-H358 (pRb-null, p53-null); the colon cancer line LS174T (pRb^+, p53^+); the prostate cancer line PC-3 (pRb^+, p53-null); the pancreatic cancer line MiaPaca (pRb^+, p53-mutant). The genotypes within brackets indicate the status of the tumour suppressor proteins pRb and p53. The mouse embryonic normal hepatic cell line (BNL CL2) and its SV40 large T-antigen-transformed counterpart cell line (BNL SV A.8) were also purchased from ATCC. The large T-antigen inactivates the tumour suppressor proteins p53 and pRb. The detailed procedure of cell proliferation (MTT) assay and IC50 determination was described previously.[32]

For assay [2], the system named is NCI-H1299 (NSCLC; p53 null, pRb+). Briefly: Cell proliferation (MTT) assay, NCI-H1299. In kind it is cell-based. The conditions noted are these: Homo sapiens, 48 h, read-out: IC50 cell growth inhibition, NCI-H1299. How it is done: as §1
Assay [3] has as its system BNL CL2 (mouse normal hepatic cells). Briefly: Cell proliferation (MTT) assay, BNL CL2. In kind it is cell-based. The conditions noted are these: Mus musculus, BNL CL.2; 48 h, MTT; read-out: IC50 cell growth inhibition, BNL CL2. How it is done: as §1
Assay [4] relates to MiaPaCa (pancreatic; p53His273mut, pRb+). Briefly: Cell proliferation (MTT) assay, MiaPaCa. In kind it is cell-based. The conditions noted are these: Homo sapiens, MIA PaCa-2, 48 h, read-out: IC50 cell growth inhibition, MiaPaCa. As to the method: as §1
The subject of assay [5] is Calu-1 (NSCLC; p53 null, pRb+). Briefly: Cell proliferation (MTT) assay, Calu-1. The class given is cell-based, human. The conditions noted are these: Homo sapiens, Calu-1; 48 h, MTT; read-out: IC50 cell growth inhibition, Calu-1. As to the method:
as §1

Assay [6] deals with LS174T (colorectal carcinoma; p53+, pRb+). Put plainly: Cell proliferation (MTT) assay, LS174T. In kind it is cell-based. The conditions noted are these: Homo sapiens, 48 h, read-out: IC50 cell growth inhibition, LS174T. How it is done: as §1
The target of the next assay is Cdk2-cyclin A (Homo sapiens, UniProt P24941). Put plainly: In vitro kinase assay, Cdk2-cyclin A (in-house). In kind it is biochemical. The conditions noted are these: three independent experiments; read-out: IC50 (mean±S.D.), Cdk2-cyclin A. How it is done: (§2) The in vitro kinase assays for testing against Cdk4-cyclin D1, Cdk2-cyclin A, Cdk1-cyclin B1 and Cdk9-cyclin T1 were performed in-house. The methodology and results have been reported previously.[20], [30], [31], [32], [45] The kinase profiling for 58 representative kinases was carrried out commercially at Millipore Bioscience Division, Livingston, UK.

The next assay has as its target Cdk1-cyclin B1 (Homo sapiens, UniProt P06493). Briefly: In vitro kinase assay, Cdk1-cyclin B1 (in-house). The conditions noted are these: three independent experiments; read-out: IC50 (mean±S.D.), Cdk1-cyclin B1. The class given is biochemical. As to the method:
as §2

A further assay addresses Cdk4-cyclin D1 (Homo sapiens, UniProt P11802). Briefly: In vitro kinase assay, Cdk4-cyclin D1 (in-house). In kind it is biochemical. The conditions noted are these: three independent experiments; read-out: IC50 (mean±S.D.), Cdk4-cyclin D1. As to the method: as §2
For a further assay, the system named is pBluescript plasmid DNA. Briefly: EtBr displacement assay. The class given is binding. The conditions noted are these: 1.3 μM EtBr, pH 7.4. How it is done:
The assays were performed in a 96-well plate with clear bottom (Costar, Washington, DC, USA). The assay involved the addition of 10 μl of 10 × concentrated stock solution of compounds (dissolved in DMSO and further diluted in EtBr displacement assay buffer) to 90 μl of reaction mixture containing 6 μg of purified pBlueScript DNA and 1.3 μM EtBr in EtBr displacement assay buffer with final pH 7.4. Equivalent amounts of DMSO were added to the vehicle controls. In addition to control samples (DNA+EtBr), test samples (DNA+EtBr+test compounds), blank 1 (EtBr only), blank 2 (DNA only), wells containing DNA and compound were also prepared to test any change in the background fluorescence readings. The reduction in relative fluorescence counts was monitored ([…]) and recorded after 1 min equilibration time. Fascaplysin and actinomycin D, which are known to intercalate d-s DNA, were used as standard compounds in assay. The mean control and test readings were corrected by subtracting blank readings. The percentage fluorescence in the test samples in reaction with control samples was calculated by using following formula: […]

The test system of another assay is A549 (NSCLC; p53+, pRb+). Briefly: Cell proliferation (MTT) assay, A549. The conditions noted are these: Homo sapiens, 48 h, read-out: IC50 cell growth inhibition, A549. In kind it is cell-based. How it is done: as §1
Assay [7] concerns PC-3 (prostate; p53 null, pRb+). Put plainly: Cell proliferation (MTT) assay, PC-3. The class given is cell-based. The conditions noted are these: Homo sapiens, 48 h, read-out: IC50 cell growth inhibition, PC-3. How it is done:
as §1

Assay [8] concerns BNL SV A.8 (mouse hepatic; SV40-mediated transformed cells). Briefly: Cell proliferation (MTT) assay, BNL SV A.8. The class given is cell-based. The conditions noted are these: Mus musculus; 48 h, MTT; read-out: IC50 cell growth inhibition, BNL SV A.8. How it is done: as §1
For another assay, the target named is Cdk9-cyclin T1 (Homo sapiens, UniProt P50750). Briefly: In vitro kinase assay, Cdk9-cyclin T1 (in-house). The conditions noted are these: three independent experiments; read-out: IC50 (mean±S.D.), Cdk9-cyclin T1. In kind it is biochemical. How it is done: as §2
Chain of Cdk9-cyclin T1 (P50750 whole entry): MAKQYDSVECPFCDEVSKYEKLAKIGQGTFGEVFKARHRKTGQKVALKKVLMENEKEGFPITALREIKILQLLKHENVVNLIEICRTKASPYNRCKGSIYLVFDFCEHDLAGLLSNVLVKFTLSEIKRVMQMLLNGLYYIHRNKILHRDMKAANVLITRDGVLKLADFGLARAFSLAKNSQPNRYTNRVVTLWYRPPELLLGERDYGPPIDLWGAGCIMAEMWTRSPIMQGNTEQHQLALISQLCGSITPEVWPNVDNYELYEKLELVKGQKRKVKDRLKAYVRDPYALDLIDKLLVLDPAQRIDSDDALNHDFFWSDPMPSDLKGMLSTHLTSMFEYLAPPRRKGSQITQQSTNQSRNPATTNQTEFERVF
Chain of Cdk9-cyclin T1 (O60563 whole entry partner): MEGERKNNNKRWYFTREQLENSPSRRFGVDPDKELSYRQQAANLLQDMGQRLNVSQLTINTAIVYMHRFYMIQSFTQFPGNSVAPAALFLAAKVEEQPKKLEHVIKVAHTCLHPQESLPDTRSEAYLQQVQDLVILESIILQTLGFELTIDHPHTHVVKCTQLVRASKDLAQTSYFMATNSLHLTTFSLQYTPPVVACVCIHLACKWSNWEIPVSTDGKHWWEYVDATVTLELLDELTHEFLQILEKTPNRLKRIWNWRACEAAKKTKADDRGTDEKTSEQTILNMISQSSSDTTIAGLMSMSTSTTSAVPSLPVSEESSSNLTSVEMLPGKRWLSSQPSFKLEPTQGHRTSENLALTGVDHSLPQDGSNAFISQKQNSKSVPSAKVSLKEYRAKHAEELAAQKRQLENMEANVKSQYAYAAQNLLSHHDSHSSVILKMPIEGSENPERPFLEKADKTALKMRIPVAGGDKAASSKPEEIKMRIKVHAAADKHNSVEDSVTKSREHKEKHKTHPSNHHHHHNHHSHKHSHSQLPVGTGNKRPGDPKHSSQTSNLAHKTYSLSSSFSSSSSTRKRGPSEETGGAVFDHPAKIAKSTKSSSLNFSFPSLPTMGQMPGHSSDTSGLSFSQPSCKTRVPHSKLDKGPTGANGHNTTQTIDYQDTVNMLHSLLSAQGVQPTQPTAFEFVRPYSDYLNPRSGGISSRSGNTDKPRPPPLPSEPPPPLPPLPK
For assay [9], the system named is NCI-H358 (NSCLC; p53 null, pRb null). Briefly: Cell proliferation (MTT) assay, NCI-H358. The class given is cell-based. The conditions noted are these: Homo sapiens, 48 h, read-out: IC50 cell growth inhibition, NCI-H358. As to the method:
as §1

In a further assay the test system is Calu-1 cells. Further details: method as in PMID 16493461. The conditions noted are these: cited from earlier work.
Another assay relates to NCI-H358 cells. Put plainly: Flow cytometric cell cycle analysis, synchronized NCI-H358. In kind it is cell-based, human. The conditions noted are these: NCI-H358, hydroxyurea 250 μM, 18 h. As to the method: The untreated (control) and treated (with test compounds) cells were harvested by trypsinization, washed once with PBS and then fixed in 70% chilled (−20 °C) ethanol for minimum 1 h. After the fixation step, cells were centrifuged for 5 min at 3000 × g at room temperature, and the pellet was suspended in PBS containing 50 μg/ml propidium iodide (Sigma-Aldrich, Dorset, UK; cat. no. P-4170) and 0.5 mg/ml DNase-free ribonuclease (Sigma-Aldrich; cat. no. R-5503). The cells were stained for 1 h in the dark at 4 °C. Cell cycle analysis was performed on the Beckman Coulter (Epics Altra) fluorescence-activated cell sorter (Beckman Coulter UK Ltd, Buckinghamshire, UK). To gate all the events that represent single cells, and not cell doublets or cell clumps, the following analyses were performed on the samples. Cytograms of propidium iodide fluorescence peak signal versus integrated fluorescence or the linear signal were plotted. All data points on the straight line were isolated in a single gate and the gated data was further used for plotting a histogram that represents a complete cell cycle. The total number of events was not allowed to exceed 200 events per s. Data acquisition was stopped after a minimum of 10 000 events had been collected.

A further assay relates to tubulin. Put plainly: Cell-free tubulin polymerization assay in vitro. In kind it is biochemical. The conditions noted are these: 10 μM; control 19 mOD/min. As to the method:
The purified tubulin was obtained commercially (Cytoskeleton Inc., Denver, CO, USA) and the polymerization assays were carried out according to the method described previously.[36] […] The resulting polymerization curves are representative of the three phases of microtubule polymerization, namely nucleation, growth and steady-state equilibrium. Paclitaxel and nocodazole were used in the assay as a known enhancer and inhibitor of tubulin polymerization, respectively. The ability of BPT to inhibit tubulin polymerization in vitro was determined according to the manufacturer's instructions. Briefly, tubulin protein (3 mg/ml) was polymerized in GTP buffer (80 mM PIPES, pH 6.9, 2 mM MgCl2, 0.5 mM EGTA, 10.2% glycerol and 1 mM GTP) in the presence of a range of BPT concentrations at 37 °C in a temperature-regulated Biotech spectrophotometer (Potton, Bedfordshire, UK). The absorbance (at 340 nm) kinetics of 61 cycles for each sample was studied and the readings were recorded at an interval of 1 min.

Chain of Cdk4-cyclin D1 (P11802 whole entry): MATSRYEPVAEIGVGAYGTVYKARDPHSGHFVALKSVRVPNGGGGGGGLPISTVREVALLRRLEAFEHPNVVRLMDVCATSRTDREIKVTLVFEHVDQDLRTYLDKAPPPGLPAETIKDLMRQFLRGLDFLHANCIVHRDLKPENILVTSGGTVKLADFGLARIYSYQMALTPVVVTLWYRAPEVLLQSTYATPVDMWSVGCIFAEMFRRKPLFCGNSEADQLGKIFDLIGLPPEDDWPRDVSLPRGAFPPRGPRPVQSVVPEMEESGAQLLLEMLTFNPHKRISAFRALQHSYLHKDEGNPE
Chain of Cdk4-cyclin D1 (P24385 whole entry partner): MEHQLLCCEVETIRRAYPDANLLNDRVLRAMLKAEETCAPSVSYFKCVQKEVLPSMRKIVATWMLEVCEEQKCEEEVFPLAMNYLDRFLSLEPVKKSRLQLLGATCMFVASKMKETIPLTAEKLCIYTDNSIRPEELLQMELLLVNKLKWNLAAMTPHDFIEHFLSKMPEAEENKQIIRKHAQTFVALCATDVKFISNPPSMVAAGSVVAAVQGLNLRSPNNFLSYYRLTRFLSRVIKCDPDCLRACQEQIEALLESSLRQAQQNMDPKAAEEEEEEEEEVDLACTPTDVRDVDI
Chain of Cdk1-cyclin B1 (P06493 whole entry): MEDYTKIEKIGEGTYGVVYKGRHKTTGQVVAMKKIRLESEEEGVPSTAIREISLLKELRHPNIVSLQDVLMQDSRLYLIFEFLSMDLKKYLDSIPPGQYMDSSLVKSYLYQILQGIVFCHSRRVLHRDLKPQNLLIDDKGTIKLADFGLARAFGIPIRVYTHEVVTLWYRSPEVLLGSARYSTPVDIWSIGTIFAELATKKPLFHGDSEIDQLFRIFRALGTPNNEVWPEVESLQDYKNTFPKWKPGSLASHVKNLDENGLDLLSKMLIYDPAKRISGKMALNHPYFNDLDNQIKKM
Chain of Cdk1-cyclin B1 (P14635 whole entry partner): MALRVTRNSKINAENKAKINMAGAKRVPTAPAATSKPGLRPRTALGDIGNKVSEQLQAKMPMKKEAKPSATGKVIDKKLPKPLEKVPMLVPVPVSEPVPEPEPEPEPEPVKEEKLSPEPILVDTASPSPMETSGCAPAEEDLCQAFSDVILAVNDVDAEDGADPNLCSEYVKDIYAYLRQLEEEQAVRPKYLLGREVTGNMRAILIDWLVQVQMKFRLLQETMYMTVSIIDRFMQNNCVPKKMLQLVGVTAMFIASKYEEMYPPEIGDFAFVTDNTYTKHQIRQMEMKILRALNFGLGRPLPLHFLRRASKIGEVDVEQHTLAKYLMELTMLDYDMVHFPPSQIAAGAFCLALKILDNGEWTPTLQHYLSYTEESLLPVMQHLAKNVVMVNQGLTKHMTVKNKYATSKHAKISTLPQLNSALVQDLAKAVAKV

Consider `COc1ccccc1C(=O)N1CCc2c([nH]c3ccccc23)C1` [CA198], for which the IC50 in assay [1] is 29 µM; in assay [2], 35 µM; in assay [3], 37 µM; in assay [4], 43 µM; in assay [5] it was 92 µM; in assay [6], 33 µM. The IC50 on Cdk2-cyclin A is 861 ± 29 µM; on Cdk1-cyclin B1, over 500 µM; at Cdk4-cyclin D1 it was 25 ± 5.5 µM; in the assay with A549 (NSCLC; p53+, pRb+), 46 µM; in assay [7] it was 42 µM; in [8] it was 40 µM. Also, the IC50 at Cdk9-cyclin T1 is over 1000 µM; in assay [9], 28 µM. For the same molecule, the “EtBr displacement from DNA” value in the assay with pBluescript plasmid DNA was “No EtBr displacement up to 100 μM”.

For the molecule `COc1cccc(C(=O)N2CCc3c([nH]c4ccccc34)C2)c1` [CA199], the IC50 is 6.2 µM in assay [1]; 4.5 µM in assay [2]; 6.5 µM in assay [3]; 8.5 µM in assay [4]; 47 µM in assay [5]; 7.1 µM in [6]. Also, the half-inhibitory concentration (IC50) at Cdk2-cyclin A is 766 ± 33 µM; at Cdk1-cyclin B1, over 500 µM; at Cdk4-cyclin D1 it was 24.4 ± 4 µM; in the assay on A549 (NSCLC; p53+, pRb+), 8 µM; in assay [7], 13.1 µM; in [8], 8.2 µM. Besides, the IC50 on Cdk9-cyclin T1 is over 1000 µM; in [9], 3.5 µM. Also, the “EtBr displacement from DNA” value in the assay with pBluescript plasmid DNA is listed as “No EtBr displacement up to 100 μM”. Besides, the “phase of cell cycle block in Calu-1 cells” value in the assay with Calu-1 cells is “blocks only at the G0/G1 phase”.

For the molecule `CC(C)(C)c1ccc(C(=O)N2CCc3c([nH]c4ccccc34)C2)cc1` [CA211], the IC50 in assay [1] was 22 µM; in [2] it was 30 µM; in [3], 27 µM; in assay [4] it was 29 µM; in [5], 54 µM; in [6] it was 29 µM. For the same molecule, the IC50 is 720 ± 24 µM on Cdk2-cyclin A; over 500 µM at Cdk1-cyclin B1; 44 ± 3 µM on Cdk4-cyclin D1; 31 µM in the assay with A549 (NSCLC; p53+, pRb+); 32 µM in [7]; 35 µM in assay [8]. Besides, the IC50 was over 1000 µM at Cdk9-cyclin T1 and 25 µM in [9]. Also, the “EtBr displacement from DNA” value in the assay with pBluescript plasmid DNA is listed as “No EtBr displacement up to 100 μM”.

On to `NC(=O)NO` [Hydroxyurea, hydroxyurea, reference compound], for which the “cells in G0/G1” value in the assay with NCI-H358 cells is reported as 77%.

Take `COC(=O)Nc1nc2ccc(C(=O)c3cccs3)cc2[nH]1` [Nocodazole, nocodazole, reference compound]: the “Vmax of tubulin polymerization” value in the assay with tubulin is on record as 4.5 mOD/min.

Turning to `Cc1c2oc3c(C)ccc(C(=O)N[C@@H]4C(=O)N[C@H](C(C)C)C(=O)N5CCC[C@H]5C(=O)N(C)CC(=O)N(C)[C@@H](C(C)C)C(=O)O[C@@H]4C)c3nc-2c(C(=O)N[C@@H]2C(=O)N[C@H](C(C)C)C(=O)N3CCC[C@H]3C(=O)N(C)CC(=O)N(C)[C@@H](C(C)C)C(=O)O[C@@H]2C)c(N)c1=O` [actinomycin D, reference compound] (I: T[dV]P[Sar][NMeV] / II: T[dV]P[Sar][NMeV]; ester I:1-I:C, II:1-II:C; linker I:N-II:N via Actinocin(9to1)), the “EtBr displacement from DNA” value in the assay with pBluescript plasmid DNA was “readily dislodges the bound EtBr”.

On to `CC(=O)O[C@H]1C(=O)[C@@]2(C)[C@H]([C@H](OC(=O)c3ccccc3)[C@]3(O)C[C@H](OC(=O)[C@H](O)[C@@H](NC(=O)c4ccccc4)c4ccccc4)C(C)=C1C3(C)C)[C@]1(OC(C)=O)CO[C@@H]1C[C@@H]2O` [paclitaxel, reference compound], for which the “Vmax of tubulin polymerization” value in the assay with tubulin is 61 mOD/min.
